These are literature values, as cited in patent publication US6566543B2, “2-arachidonylglycerol (2-AG)-an inhibitor of tumor necrosis factor-α and neuroprotector of brain in closed head injury” (Yissum Research Development Company of The Hebrew …, priority 2000, dated 2003).

For one data set, the system named is cannabinoid receptors. Conditions: previously shown, Ben-Shabat et al., 1998.
The test system of another data set is TNF-α. Conditions: astrocytes.
In a further data set the test system is nitric oxide release. To be noted: astrocytes.

For the molecule `CCCCC/C=C\C/C=C\CCCCCCCC(=O)OC(CO)CO` [2-LinoG, 2-linoleoylglycerol], the “activity in numerous in vivo and in vitro assays (including binding to the cannabinoid receptors)” value in the data set with cannabinoid receptors was “inactive”.

As for `CCCCCCCCCCCCCCCC(=O)OC(CO)CO` [2-PalmG, 2-palmitoylglycerol], the “activity in numerous in vivo and in vitro assays (including binding to the cannabinoid receptors)” value with cannabinoid receptors was “inactive”.

On to `CCCCC/C=C\C/C=C\C/C=C\C/C=C\CCCC(=O)NCCO` [Anandamide, arachidonylethanolamide], for which the “inhibition of TNF-α production” value in the data set on TNF-α is “relatively modest”. In addition, the nitric oxide release result in the data set on nitric oxide release is given as “blocked nitric oxide release”.
